Reference: US7271274B2, “Phenolic antioxidants for the treatment of disorders including arthritis, asthma and coronary artery disease” (AhteroGenics, Inc., priority 2004, dated 2007)

Key:
[1] = clinical trials; cited from earlier work
[2] = tested on: murine model of allergic pulmonary inflammation; details: cited from earlier work
[3] = tested on: VCAM-1; experiment: In Vitro VCAM-1 Assay - Method 1 (TNF-α stimulated endothelial cells, surface VCAM-1 ELISA); format: cell-based; details: Homo sapiens, Endothelial cell; HAEC or HPAEC, TNF-α 1 ng/ml with compound approximately 16 hours
Experimental: Cell Culture and compound dosing: Cultured primary human aortic (HAEC) or pulmonary (HPAEC) endothelial cells were obtained from Clonetics, Inc., and were used below passage 9. Cells were seeded in 96 well plates such that they would reach 90–95% confluency by the following day. On the following day the cells were stimulated with TNF-α (1 ng/ml) in the presence or absence of compounds dissolved in DMSO such that the final concentration of DMSO is 0.25% or less. To establish a dose curve for each compound, four concentrations in 2- to 5-fold increments were used. Cells were exposed to TNF-α and compounds for approximately 16 hours. The next day the cells were examined under microscope to score for visual signs of toxicity or cell stress.
Following 16 hr exposure to TNF-α and compound the media was discarded and the cells were washed once with Hanks Balanced Salt Solution (HBSS)/Phosphate buffered saline (PBS) (1:1). Primary antibodies against VCAM-1 (0.25 μg/ml in HBSS/PBS+5% FBS) were added and incubated for 30–60 minutes at 37° C. Cells were washed with HBSS/PBS three times, and secondary antibody Horse Radish Peroxidase (HRP)-conjugated goat anti-mouse IgG (1:500 in HBSS/PBS+5% FBS) were added and incubated for 30 minutes at 37° C. Cells were washed with HBSS/PBS four time and TMB substrate were added and incubated at room temperature in the dark until there was adequate development of blue color. The length of time of incubation was typically 5–15 minutes. 2N sulfuric acid was added to stop the color development and the data was collected by reading the absorbance on a BioRad ELISA plate reader at OD 450 nm. The results are expressed as IC50 values (the concentration (micromolar) of compound required to inhibit 50% of the maximal response of the control sample stimulated by TNF-α only). IC50's of tested compounds are tabulated in Biological Table 1.

[4] = tested on: VCAM-1; experiment: In Vitro VCAM-1 Assay - Method 2 (19 h predosing, 4 h TNFα stimulation, surface VCAM-1); format: cell-based; details: Homo sapiens; HAEC or HPAEC, predosed 19 hours, TNFα 1.5 ng/ml 4 hours
Experimental: Cultured primary human aortic (HAEC) or pulmonary artery (HPAEC) endothelial cells are obtained from BioWhittaker (formerly Clonetics), and are used below passage 9. Cells are seeded in 96-well plates such that they will reach ˜95% confluency by the following day (i.e.10,000 cells/well). Compounds are reconstituted in DMSO (100%) and sonicated to ensure maximum dissolution. Dilutions are then made in DMSO to 500× of final concentrations. These stocks are then diluted 500× into cell culture media (EGM-2 Mv, BioWhittaker) and placed overnight in tissue culture incubator (37° C., 5% CO2) to allow maximum dissolution).
Media is removed from the cells and replaced with the prewarmed dosing media. Cells are predosed in this manner for 19 hours at 37° C., 5% CO2. Remove media again from the cells and replace with prepared dosing media containing TNFα (1.5 ng/ml). Allow stimulation to continue for 4 hours at 37° C., 5% CO2. Media is removed and saved for evaluation of secreted factors as needed. Cells are used for quantitating surface VCAM-1, followed by Hoescht nuclear stain for cell number to determine toxicity. Assay for surface VCAM-1 continues as described in Method 1. IC50's of tested compounds are tabulated in Biological Table 1.

[5] = tested on: TNF-α; experiment: Cytokine screening: LPS-induced secretion of TNF-α from hPBMCs; format: cell-based; details: Homo sapiens
Experimental: (§1) Fresh cryopreserved hPBMCs (1 million cells/ml; Clonetics, Inc.) were pretreated with test compound for 1 hr in lymphocyte growth media-3 (Clonetics, Inc.), followed by stimulation with 1 μg/ml of LPS for another 2 hr in the presence of test compound. Conditioned media was collected and assayed for secreted TNF-α, IL-1β and […] using commercially available human ELISA kits (R&D Systems). Samples were measured in duplicate and data presented as mean ± standard deviation. Each experiment was repeated at least three times with similar results.

[6] = tested on: IL-1β; experiment: Cytokine screening: LPS-induced secretion of IL-1β from hPBMCs; format: cell-based; details: Homo sapiens, Biological Table 2, LPS 1 μg/ml, mean ± standard deviation
Experimental: as §1

[7] = tested on: IL-6; experiment: Cytokine screening: LPS-induced secretion of IL-6 from hPBMCs; format: cell-based; details: Homo sapiens, Biological Table 2, LPS 1 μg/ml, mean ± standard deviation
Experimental: as §1

[8] = tested on: Male BALB/c mice; experiment: mBSA-induced delayed-type hypersensitivity (DTH) model of inflammation in mice; format: in vivo; details: vehicle swelling = 100%
Experimental: The methylated bovine serum albumin (mBSA)-induced delayed-type hypersensitivity (DTH) model of mice is generally used for screening compounds with anti-inflammatory effects (Sarnstrand et al., Pharmacol. Exp. Ther. 1999, 288, 1174–84). Compounds of Ex-1 and Ex-2 were tested in this model, dosed subcutaneously at 24 and 2 hrs prior to challenge at doses of 50 and 25 mg/kg with cyclosporin A (CSA) as positive control.
Male BALB/c mice (20–25 g) were sensitized on day 0 by intradermal abdominal injection of 100 μL of a 1:1 emulsion of mBSA (5 mg/ml) and Freund's complete adjuvant. On day 7, the mice were challenged by injecting 25 μL of mBSA (5 mg/ml) into the footpad of the right hindpaw and the left hindpaw was injected with saline. Mice were treated by s.c. injection of test compound 24 hrs and 2 hrs before the challenge. Twenty four hours after challenge mice were sacrificed by CO2 inhalation. The feet were removed by cutting just above the heel with scissors, and the mass of the saline-injected foot was subtracted from the mass of the mBSA injected foot to determine the amount of swelling that occurred in the latter. Inhibition of swelling for test compound group was calculated, taking the swelling of the vehicle-treated group as 100%. The results from the DTH model are summarized for examples 1 and 2 in Biological Table 4 using cyclosporine A (CSA) as a positive control.

[9] = tested on: Balb/C mice; experiment: In vivo asthma model (ovalbumin-sensitized mice, BAL fluid eosinophilia); details: 25 mg/kg, sc, qd; BALF eosinophilia vs vehicle control
Experimental: Balb/C mice (6–8 weeks old) were sensitized to ovalbumin (ova) (8 ug ova absorbed in 3.3 mg Alum inject) on days 0 and 5. On day 12, the mice were aerosol challenged with 0.5% ovalbumin dissolved in sterile saline for 1 hr in the AM, and then again in the PM (at least 4 hr apart). On day 14, the mice were anesthetized with ketamine/xylazine/acepromazine cocktail, exsanguinated, and then euthanized. Following blood collection, bronchoaveolar lavage (BAL) was performed on each animal. Total cell counts were conducted on the lavage fluid, which was subsequently diluted with cell media 1:1. Slides of the lavage fluid were made by spinning the samples with a cytospin centrifuge and then air drying. Cell differentials of the lavage fluid were determined by microscopic evaluation of hematoxylin and eosin-stained slides. Data are expressed as the % inhibition of eosinophilia in the BAL fluid compared to the vehicle control. […] The formulations used contained various mixtures of the following excipients (propylene glycol, polyethylene glycol, Tween 80, Glycofurol).

[10] = tested on: Female Lewis rats; experiment: In vivo rheumatoid arthritis model (Freund's complete adjuvant, paw swelling); details: paw swelling vs vehicle control
Experimental: Female Lewis rats (200–250 g) were sensitized with Freund's complete adjuvant (100 ug) by subcutaneous injection at the base of the tail. Paw swelling was monitored by measuring the volume of each foot with a plethysmometer on days 5, 8, 12–15. Animals were euthanized on day 15. […] Data is expressed as the % inhibition of paw swelling (AUC of the paw volume vs time curve d5–15) compared with vehicle control. The formulations used contained various mixtures of the following excipients (propylene glycol, polyethylene glycol, Tween 80, Glycofurol).

[11] = tested on: LDL receptor-deficient rabbits; details: cited from earlier work
[12] = Biological Table 3, LPS-induced secretion from hPBMN cells, average of at least three determinations
[13] = Biological Table 2, hPBMCs, LPS 1 μg/ml, mean ± standard deviation
[14] = 25 mg/Kg s.c. 24 hrs and 2 hrs before challenge
[15] = 50 mg/Kg s.c. 24 hrs and 2 hrs before challenge

IC50 [3] | IC50 [5, 12] | IC50 [5, 13] | IC50 [6] | IC50 [7] | melting point | Structure (SMILES) | Percent Inhibition (of swelling) [8, 14] | Percent Inhibition (of swelling) [8, 15] | Inhibition of BAL fluid eosinophilia (asthma model) [9] | also measured
– | – | – | – | – | – | CC(C)(Sc1cc(C(C)(C)C)c(O)c(C(C)(C)C)c1)Sc1cc(C(C)(C)C)c(OC(=O)CCC(=O)O)c(C(C)(C)C)c1 [AGI-1067] | – | – | – | QTc prolongation [1]: did not cause QTc prolongation
– | – | – | – | – | – | COc1cc(CC(=O)N[C@@H](CC(C)C)c2cc(CCC(=O)O)on2)ccc1NC(=O)Nc1ccccc1C [CP-664511] | – | – | – | airway eosinophil infiltration [2]: inhibited airway eosinophil infiltration
7 µM | 5.1 µM | 4 ± 1 µM | 7.7 ± 0.6 µM | 1.7 ± 0.9 µM | 69 to 71 °C | CC(C)(Sc1cc(C(C)(C)C)c(O)c(C(C)(C)C)c1)Sc1cc(C(C)(C)C)c(OC[C@H](O)[C@@H](O)CO)c(C(C)(C)C)c1 [Ex-1, 4-{2,6-Di-tert-butyl-4-[1-(3,5-di-tert-butyl-4-hydroxyphenylsulfanyl)-1-methylethyl-sulfanyl]phenoxy}butane-1,2(S),3(S)-triol] | +40% | +65% | 87 percentage | IC50 [4]: 9 µM
5 µM | 1.6 µM | 3.3 ± 0.3 µM | 8 µM | 1.2 ± 0.3 µM | 69 to 71 °C | CC(C)(Sc1cc(C(C)(C)C)c(O)c(C(C)(C)C)c1)Sc1cc(C(C)(C)C)c(OC[C@@H](O)[C@H](O)CO)c(C(C)(C)C)c1 [Ex-2, 4-{2,6-Di-tert-butyl-4-[1-(3,5-di-tert-butyl-4-hydroxyphenylsulfanyl)-1-methylethylsulfanyl]-phenoxy}butane-1,2(R),3(R)-triol] | +25% | +60% | 65 percentage | Rheumatoid arthritis model (25 mg/kg, sc, qd, inhibition of paw swelling in percentage) [10]: 75 percentage
– | – | – | – | – | – | CC(C)(Sc1cc(C(C)(C)C)c(O)c(C(C)(C)C)c1)Sc1cc(C(C)(C)C)c(O)c(C(C)(C)C)c1 [probucol, 4,4′-(isopropylidenedithio) bis(2,6-di-tert-butylphenol)] | – | – | – | progression of atherosclerosis [11]: slow the progression of atherosclerosis
